The test system of this assay is 922993-354-T-J3-PDC complex spheroids, viability. The experiment in a line: Anticancer human tumor 922993-354-T-J3-PDC patient-derived endometrial carcinoma cell line growth inhibition [GQUAD]. The settings on record: for viability, T/C: stronger effect = lower value; for IC50: curve of compound. The source says: DNA G-quadruplex Stabilizer Agents in Combinations in Complex Spheroids
A high-throughput screen of multi-cell type tumor spheroids was designed to identify active combinations of DNA G-quadruplex stabilizer agents and targeted small molecules. Complex spheroids include a stromal component modeled by human endothelial cells (HUVEC) and fibroblasts modeled by human mesenchymal stem cells (MSCs). The concentration ranges selected for each drug and investigational agent were based upon clinically achievable concentrations if the clinical Cmax of the agent was known.
Compounds. The drugs and investigational agents: pidnarulex (CX-5461; NSC782164), APTO-253 (NSC789042), BRACO-19 (NSC847499), peposertib (NSC802822), ceralasertib (NSC780249), elimusertib (NSC800525), camonsertib (NSC841442), AZD-1390 (NSC803789), olaparib (NSC753686), talazoparib (NSC767125), ART-558 (NSC835418), sotorasib (NSC818433), MRTX-1133 (NSC836407), SN-38 (NSC673596), topotecan (NSC609699), etoposide (NSC141540), doxorubicin (NSC123127), gemcitabine (NSC613327), 5-fluorouracil (NSC19893), paclitaxel (NSC125973), vemurafenib (NSC761431), panobinostat (NSC761190), R-306465 (JNJ-16241199; NSC773264), adavosertib (NSC754352), TP-3654 (NSC805149), carboplatin (NSC241240), KSQ-4279 (NSC840948), and staurosporine (NSC755774) were obtained from the National Cancer Institute (NCI) Developmental Therapeutics Program Chemical Repository (34). The FDA-approved anticancer drug set is available from the NCI Developmental Therapeutics Program. […] The stock solutions were prepared in dimethyl sulfoxide (DMSO, Sigma-Aldrich, St. Louis, MO, cat. D2650) at 800-fold the tested concentration and stored at -70 degrees C prior to their use. All drugs and investigational agents were tested over a range starting from a high concentration at or near the clinical Cmax and decreasing in half-log increments. If the clinical Cmax for an agent had not been determined, the highest concentration tested was 10 microM.
2.3 Cell Culture. All cells were maintained in an incubator at 37 degrees C and 5% CO2 with 95% humidity. The PDC lines were cultured according to standard operating procedures established by the NCI PDMR. All PDCs were thawed and cultured in Matrigel-coated flasks prepared with a working solution of 1X Ham's F-12 nutrient mix, without supplementation (Invitrogen, cat. 11765054), 100 U/mL penicillin-streptomycin (Invitrogen, cat. 15140122), and 2.5% Matrigel (Corning Inc., cat. 354248) for the first three passages. The 857933-349-R-J2-PDC line was cultured in 6C/Colon 1B media, which includes advanced DMEM/F-12 (Thermo Fisher Scientific, cat. 12634028), 10 mM HEPES (Thermo Fisher Scientific, cat. 15630080), 1X GlutaMAX supplement (Thermo Fisher Scientific, cat. 35050061), 0.1 mg/mL primocin (InvivoGen, cat. ant-pm-2), 10% defined fetal bovine serum, heat inactivated (HyClone Laboratories Inc., cat. SH30070.03HI), 50% L-WRN conditioned media (ATCC, cat. CRL-3276), 1.25 mM N-Acetyl-L-cysteine (Sigma-Aldrich, cat. A9165), 10 mM nicotinamide (Sigma-Aldrich, cat. N0636), 1X B-27 supplement (Thermo Fisher Scientific, cat. 17504044), 1X N-2 supplement (Thermo Fisher Scientific, cat. 17502048), 10 microM Y-27632 dihydrochloride (Tocris Bioscience, cat. 1254), and 50 ng/mL human EGF recombinant protein (Thermo Fisher Scientific, cat. PHG0311). The 485176-168-R4-J1-PDC line was cultured in Panc media, which includes all 6C/Colon 1B media components plus 100 ng/mL human FGF-10 (Thermo Fisher Scientific, cat. 100-26), 500 nM SB-431542 (Selleckchem, cat. S1067), and gastrin (Tocris, cat. 3006).
[…]

Values joined by “and” are separate entries in the source; they are usually repeats but may differ in a detail not shown here. Identical values can stand only once.

11 compounds from PubChem BioAssay AID2060489 (Molecular Pharmacology Branch, DTP, NCI, 2025) can be followed below.
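Note: spheroids exposed to compounds for seven days.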

In general, viability, T/C refers to the ratio of treated to control. In general, IC50 refers to the concentration needed to halve the response being measured. `COc1cc(C2c3cc4c(cc3C(OC3OC5COC(C)OC5C(O)C3O)C3COC(=O)C23)OCO4)cc(OC)c1O` (stereo not given): the IC50 is > 10 µM and 6.75 µM. Also, the viability, T/C (compound 0.0316 µM) was 88.4% and 94.8% and 88.6%. In addition, the viability, T/C (compound 0.1 µM) is 89% and 80.4% and 92%. For the same compound, the viability, T/C (compound 0.316 µM) is 76.1% and 86.3% and 92.8%. In addition, the viability, T/C (compound 1 µM) was 89.5% and 99.4% and 80.7%. Besides, the viability, T/C (compound 3.16 µM) is 74.5% and 95.4% and 76.1%. Also, under “compound 10 µM”, the viability, T/C is 56.4% and 62.6% and 37%.
With `COc1ccc([C@@H](O)c2cc(-c3ncnc4cc(N5CCOCC5)ccc34)c(F)cc2Cl)nn1`, the IC50 was over 10 µM. Further, where the note is “compound 0.0316 µM”, the viability, T/C was 93.2% and 109% and 98.5%. Also, the viability, T/C (compound 0.1 µM) is 99.4% and 61.7% and 94.8%. Moreover, under “compound 0.316 µM”, the viability, T/C is 103% and 87% and 92.8%. For the same compound, where the note is “compound 1 µM”, the viability, T/C was 93.4% and 83.4% and 86.5%. Also, under “compound 3.16 µM”, the viability, T/C was 92% and 94.4% and 85%. The viability, T/C (compound 10 µM) is 69.3% and 69% and 52.9%.
As for `COc1cccc2c1C(=O)c1c(O)c3c(c(O)c1C2=O)CC(O)(C(=O)CO)CC3OC1CC(N)C(O)C(C)O1` (stereo not given), the half-inhibitory concentration (IC50) was > 10 µM and 4.82 µM and 8.46 µM. Moreover, the viability, T/C (compound 0.0316 µM) is 101% and 78% and 112%. Moreover, the viability, T/C (compound 0.1 µM) is 85.8% and 98% and 78.3%. For the same compound, the viability, T/C (compound 0.316 µM) is 83.7% and 94.3% and 93%. Besides, for the setting “compound 1 µM”, the viability, T/C was 108% and 71.4% and 89.4%. The viability, T/C (compound 3.16 µM) was 68.2% and 64.5% and 86%. Further, where the note is “compound 10 µM”, the viability, T/C is 57.2% and 28.9% and 43.5%.
On to `Cc1[nH]c2ccccc2c1CCNCc1ccc(/C=C/C(=O)NO)cc1`, for which the IC50 is over 0.316 µM. The viability, T/C (compound 0.000999 µM) is 83.6% and 110% and 88.9%. Further, the viability, T/C (compound 0.00316 µM) was 102% and 93.8% and 74%. Moreover, under “compound 0.00999 µM”, the viability, T/C is 70% and 75.6% and 89.6%. Besides, the viability, T/C (compound 0.0316 µM) was 101% and 89% and 85.7%. Moreover, for the setting “compound 0.0999 µM”, the viability, T/C was 63.2% and 87.7% and 68.7%. For the same compound, for the setting “compound 0.316 µM”, the viability, T/C is 57.2% and 55.4% and 52.3%.
On to `Cc1cccc(N(C)C(=O)C2C(O)CCN2c2nc(C)cc(C(F)(F)F)c2C#N)c1` (stereo not given), for which the IC50 was over 10 µM. Besides, the viability, T/C (compound 0.0316 µM) was 90.6% and 93.6% and 97.1%. Also, the viability, T/C (compound 0.1 µM) was 106% and 90.6% and 105%. The viability, T/C (compound 0.316 µM) is 83.6% and 87.3% and 122%. Moreover, the viability, T/C (compound 1 µM) was 118% and 86.8% and 91.9%. In addition, under “compound 3.16 µM”, the viability, T/C is 122% and 71.7% and 102%. Also, under “compound 10 µM”, the viability, T/C was 110% and 94.2% and 78.3%.
For the compound `Cc1cnc(CNC(=O)c2c(=O)c3ccc(N4CCCN(C)CC4)nc3n3c2sc2ccccc23)cn1`, the viability, T/C was 83.9% [middle of 12 runs] (compound 0.0316 µM); 66% [middle of 12 runs] (compound 0.1 µM); 53.7% [middle of 12 runs] (compound 1 µM); 49.3% [middle of 12 runs] (compound 3.16 µM); 46.9% [middle of 12 runs] (compound 10 µM).
On to `Cn1ncnc1[C@H]1c2n[nH]c(=O)c3cc(F)cc(c23)N[C@@H]1c1ccc(F)cc1`, for which the IC50 is over 0.316 µM. In addition, under “compound 0.000999 µM”, the viability, T/C was 93.3% and 98.8% and 108%. The viability, T/C (compound 0.00316 µM) is 101% and 78.7% and 113%. Moreover, the viability, T/C (compound 0.00999 µM) is 76.9% and 101% and 85.8%. For the same compound, where the note is “compound 0.0316 µM”, the viability, T/C was 87.9% and 74.9% and 91.4%. In addition, the viability, T/C (compound 0.0999 µM) was 68.9% and 72% and 78.9%. For the same compound, for the setting “compound 0.316 µM”, the viability, T/C is 54.5% and 62% and 59.1%.
As for `Nc1ccn(C2OC(CO)C(O)C2(F)F)c(=O)n1` (stereo not given), the IC50 is under 0.0316 µM. For the same compound, the viability, T/C (compound 0.0316 µM) is 22.6% and 12.1% and 26.3%. Besides, under “compound 0.1 µM”, the viability, T/C was 22% and 11.3% and 23.6%. Further, under “compound 0.316 µM”, the viability, T/C was 28% and 12.5% and 23.7%. Besides, for the setting “compound 1 µM”, the viability, T/C is 24.6% and 13.1% and 30.6%. Also, the viability, T/C (compound 3.16 µM) is 23.4% and 12.9% and 18.8%. In addition, for the setting “compound 10 µM”, the viability, T/C is 20.9% and 11.3% and 20.8%.
For the compound `O=C(NO)c1cnc(N2CCN(S(=O)(=O)c3ccc4ccccc4c3)CC2)nc1`, the IC50 was 0.381 µM and 0.447 µM and 0.422 µM. For the same compound, where the note is “compound 0.0316 µM”, the viability, T/C was 98.1% and 88.5% and 95.5%. Further, the viability, T/C (compound 0.1 µM) is 71.3% and 68.2% and 82.4%. Besides, the viability, T/C (compound 0.316 µM) is 56% and 62% and 55.4%. Moreover, the viability, T/C (compound 1 µM) was 36.7% and 32.2% and 32%. The viability, T/C (compound 3.16 µM) is 3.07% and 3.39% and 4.12%. The viability, T/C (compound 10 µM) was 0.53% (2×) and 0.58%.
Consider `O=C(c1cc(Cc2n[nH]c(=O)c3ccccc23)ccc1F)N1CCN(C(=O)C2CC2)CC1`, for which the IC50 is over 10 µM. For the same compound, under “compound 0.0316 µM”, the viability, T/C is 86.5% and 123% and 91.1%. Besides, the viability, T/C (compound 0.1 µM) was 93% and 92.2% and 94.4%. Moreover, the viability, T/C (compound 0.316 µM) is 102% and 98.1% and 105%. Besides, under “compound 1 µM”, the viability, T/C was 86.7% and 85.6% and 86.3%. The viability, T/C (compound 3.16 µM) is 88.2% and 92.5% and 92.1%. Also, for the setting “compound 10 µM”, the viability, T/C is 99.3% and 77.2% and 85.4%.
Consider `O=c1[nH]cc(F)c(=O)[nH]1`, for which the IC50 is > 10 µM and 3.85 µM. Further, the viability, T/C (compound 0.0316 µM) is 104% and 107% and 113%. Also, the viability, T/C (compound 0.1 µM) was 98.3% and 97.9% and 83.3%. Also, the viability, T/C (compound 0.316 µM) was 99.5% and 94.9% and 75%. Also, where the note is “compound 1 µM”, the viability, T/C is 76% and 72.9% and 90.1%. For the same compound, the viability, T/C (compound 3.16 µM) is 81.2% and 74.1% and 57%. In addition, the viability, T/C (compound 10 µM) was 47.9% and 65.3% and 16.6%.
